Reference: ChEMBL document CHEMBL1122274, “Inhibitors of glycolic acid oxidase. 4-substituted 2,4-dioxobutanoic acid derivatives” (J Med Chem, 1983)

Assays:
[1] = Acidic dissociation constant (pKa) determined in 50% aqueous ethanol; format: physicochemical
[2] = Acidic dissociation constant (pKa) determined in 50% aqueous ethanol;ND is defined as no-data.; format: physicochemical

pKa [1]: 3.34 | pKa [2]: 3.34
Compound: O=C(O)C(=O)CC(=O)c1ccc(-c2ccccc2)cc1
